Data set [1] has as its system Claudin-5/Occludin. The data set can be described thus: Tumor cell culture co-incubated with bEnd.3 cells (U87MG removed), Claudin-5/Occludin immunofluorescence. In kind it is cell-based. Conditions: tumor cell culture kept, 10 μM, 24 hours, FIG. 17. As to the method:
FIG. 17: Co-incubation of a tumor cell culture and bEnd.3 cells in vitro, and immunofluorescent staining of a blood-brain barrier tight junction protein of Claudin-5/Occludin. A Transwell model of co-incubation of brain microvascular endothelial cells bEnd.3 and glioma cells U87 MG simulates a pathological blood-brain barrier. Once a pathological blood-brain barrier model was formed, U87MG glioma cells in the outer chamber of Transwell were removed, while the tumor cell cultures were remained. Axitinib (10 μM) and an Axitinib analog of phosphatidylinositol kinase (PI3K) inhibitor LY294002 (10 μM) were added to the Transwell chamber. After 24 hours, immunofluorescent staining was performed on bEnd.3 cells on the Transwell chamber membrane. A physiological blood-brain barrier simulated by a Transwell model of brain microvascular endothelial cell bEnd.3 was used as a positive control.
The physiological blood-brain barrier and the pathological blood-brain barrier as constructed in Method 1 and Method 2 in the Example 1 were used as models, respectively. Once a pathological blood-brain barrier model was formed, U87MG glioma cells in the outer chamber of Transwell were removed, while the tumor cell cultures were remained. Axitinib (10 μM) and an Axitinib analog of phosphatidylinositol kinase (PI3K) inhibitor LY294002 (10 μM) were added to the Transwell chamber. […]

In data set [2] the test system is bEnd.3 cells. Nature of the data set: Cell survival rate by tetrazolium blue colorimetry, bEnd.3 cells. The settings on record: 10 μM (therapeutic dose), FIGS. 13 and 14. In kind it is cell-based. As to the method: FIG. 13: Evaluation of cell survival rate in a Transwell model. A Transwell model of co-incubation of brain microvascular endothelial cells bEnd.3 and glioma cells U87 MG simulates a pathological blood-brain barrier. Axitinib (10 μM) and an Axitinib analog of phosphatidylinositol kinase (PI3K) inhibitor LY294002 (10 μM) were added into the Transwell chamber. After 24 hours, the survival rate of bEnd.3 cells in the Transwell chamber (Panel A) and U87 MG cells in the Transwell outer chamber (Panel B) were detected by tetrazolium blue colorimetry (n=3).
FIG. 14: Evaluation of Cytotoxicity for Axitinib and an analog thereof. […] Cell survival rate was detected by tetrazolium blue colorimetry. […]
The physiological blood-brain barrier and the pathological blood-brain barrier as constructed in Method 1 and Method 2 in the Example 1 were used as models, respectively. […] Absorbance at 570 nm was measured with a microplate reader. The survival rate of cells was calculated according to the following formula: Survival rate of cells (%)=(absorbance value of a test group/absorbance value of a control group)×100%
In addition, bEnd.3 cells and U87 MG glioma cells were used as model cells to evaluate the cytotoxicity of Axitinib and an Axitinib analog of phosphatidylinositol kinase (PI3K) inhibitor LY294002 with the tetrazolium blue colorimetric method. […] Absorbance at 570 nm was measured with a microplate reader.

As to `CNC(=O)c1ccccc1Sc1ccc2c(/C=C/c3ccccn3)n[nH]c2c1` [Axitinib, N-methyl-2-((3-((1E)-2-(pyridine-2-yl)ethenyl)-1H-indazol-6-yl)sulfanyl)benzamide], in data set [1], the “Expression of tight junction protein Claudin-5/Occludin” value is “the degree to which pathological blood-brain barrier tight junction protein of Claudin-5/Occludin is down-regulated is reduced”. In addition, the Cytotoxicity result in data set [2] is listed as “do not produce significant cytotoxicity”.
